Laboratory results published in patent US20220025379A1, “METHODS OF TREATING SCHIZOPHRENIA AND OTHER NEUROPSYCHIATRIC DISORDERS” (UNIVERSITY OF ROCHESTER, priority 2018, published 2022).

Legend:
SCZ astrocytes = experiment: Potassium uptake (86Rb) by SCZ astrocytes; format: cell-based, human; settings: 86Rb uptake, 4 lines
Protocol: Potassium uptake. Astrocytes were plated onto poly-ornithine- and laminin-coated 24-well plates with 30,000 cells/well. For the potassium uptake assay, astrocytes were incubated with ^86Rb (1.0-3.3 μCi/well) for 15 minutes, and then they were washed three time with ice-cold artificial cerebrospinal fluid (aCSF, 500 μL/well). 0.5N NaOH (200 μL/well) was put into each well for cell lysis, which was put into 5 ml cocktail liquid (Ultima Gold, Fisher Scientific, 509050575) and measured by scintillation counter (Beckman Coulter, LS6500), and the results were normalized to both total protein (BCA Protein Assay Kit, Fisher Scientific, 23227) and cell number (Hemocytometer, Fisher Scientific, 02-671-54). […]
To address this hypothesis, qPCR was used to confirm whether these K+ channel-associated genes were dysregulated in SCZ glia. […] Next, functional K^+ uptake was assessed directly, in cultured SCZ- and CTR-derived astrocytes. […] Astrocytes from 4 different SCZ and 4 different CTR lines were then incubated with 86Rb, a surrogate monovalent cation for K^+ uptake (Larsen et al., “Contributions of the Na(+)/K(+)-ATPase, NKCC1, and Kir4.1 to Hippocampal K(+) Clearance and Volume Responses,” Glia 62:608-622 (2014), which is hereby incorporated by reference in its entirety), and rubidium uptake measured as a function of both cell number and total protein.

CTR astrocytes = experiment: Potassium uptake (86Rb) by CTR astrocytes; format: cell-based, human; settings: CTR glia/astrocytes, 86Rb uptake, 4 lines
Protocol: Potassium uptake. Astrocytes were plated onto poly-ornithine- and laminin-coated 24-well plates with 30,000 cells/well. For the potassium uptake assay, astrocytes were incubated with ^86Rb (1.0-3.3 μCi/well) for 15 minutes, and then they were washed three time with ice-cold artificial cerebrospinal fluid (aCSF, 500 μL/well). 0.5N NaOH (200 μL/well) was put into each well for cell lysis, which was put into 5 ml cocktail liquid (Ultima Gold, Fisher Scientific, 509050575) and measured by scintillation counter (Beckman Coulter, LS6500), and the results were normalized to both total protein (BCA Protein Assay Kit, Fisher Scientific, 23227) and cell number (Hemocytometer, Fisher Scientific, 02-671-54). The aCSF solution contained (in mM): 124 NaCl, 2.5 KCl, 1.75 NaH2PO4, 2 MgCl2, 2 CaCl2, 0.04 vitamin C, 10 glucose and 26 NaHCO3, pH 7.4.
To address this hypothesis, qPCR was used to confirm whether these K+ channel-associated genes were dysregulated in SCZ glia. […] Next, functional K^+ uptake was assessed directly, in cultured SCZ- and CTR-derived astrocytes. To obtain mature SCZ and CTR astrocyte cultures, CD44− sorted glial progenitors were cultured in base media supplemented with 10% fetal bovine serum (FBS) and 20 ng/ml BMP4 for 4 weeks, so as to potentiate the differentiation of mature, glial fibrillary acidic protein (GFAP)-expressing, fiber-bearing astrocytes (FIGS. 10A-10C). […] Astrocytes from 4 different SCZ and 4 different CTR lines were then incubated with 86Rb, a surrogate monovalent cation for K^+ uptake (Larsen et al., “Contributions of the Na(+)/K(+)-ATPase, NKCC1, and Kir4.1 to Hippocampal K(+) Clearance and Volume Responses,” Glia 62:608-622 (2014), which is hereby incorporated by reference in its entirety), and rubidium uptake measured as a function of both cell number and total protein.

## CCCCNc1cc(C(=O)O)cc(S(N)(=O)=O)c1Oc1ccccc1 [bumetanide]
SCZ astrocytes
  K+ uptake: neither ouabain nor bumetanide affected
CTR astrocytes
  K+ uptake: significantly inhibited

## C[C@@H]1O[C@@H](O[C@H]2C[C@@H](O)[C@]3(CO)[C@H]4[C@H](O)C[C@]5(C)[C@@H](C6=CC(=O)OC6)CC[C@]5(O)[C@@H]4CC[C@]3(O)C2)[C@H](O)[C@H](O)[C@H]1O [ouabain]
SCZ astrocytes
  K+ uptake: neither ouabain nor bumetanide affected
CTR astrocytes
  K+ uptake: significantly inhibited

## tertiapin (ALCNCNRIIIPHMCWKKCGKK; UniProt P56587 1-21, looked up) [drug which targets Kir channels]
CTR astrocytes
  K+ uptake: did not
